This is an account of results in BindingDB's records for PubMed 995128 (1976).

Assay [1] has as its target D(1A) dopamine receptor (Bos taurus, UniProt Q95136).
Assay [2] addresses D(2) dopamine receptor (Bos taurus, UniProt P20288).

Where “and” joins values, the source holds several entries; their conditions need not be identical. Identical values can stand only once. Counter-ions that a name gives are not always drawn. Some results are limits rather than exact numbers.

Sequence of D(1A) dopamine receptor (Q95136 whole entry): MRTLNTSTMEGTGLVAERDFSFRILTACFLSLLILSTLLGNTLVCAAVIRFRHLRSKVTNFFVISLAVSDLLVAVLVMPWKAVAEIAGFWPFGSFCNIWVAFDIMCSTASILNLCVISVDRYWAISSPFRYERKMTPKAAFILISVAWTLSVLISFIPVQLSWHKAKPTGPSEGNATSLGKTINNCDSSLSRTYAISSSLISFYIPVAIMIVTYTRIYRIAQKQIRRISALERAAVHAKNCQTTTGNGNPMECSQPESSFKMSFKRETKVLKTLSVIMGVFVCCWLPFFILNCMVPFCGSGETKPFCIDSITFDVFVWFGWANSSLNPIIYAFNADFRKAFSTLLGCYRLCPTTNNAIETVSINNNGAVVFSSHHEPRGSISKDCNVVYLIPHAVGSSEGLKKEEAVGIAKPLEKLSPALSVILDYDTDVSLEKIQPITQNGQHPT
Sequence of D(2) dopamine receptor (P20288 whole entry): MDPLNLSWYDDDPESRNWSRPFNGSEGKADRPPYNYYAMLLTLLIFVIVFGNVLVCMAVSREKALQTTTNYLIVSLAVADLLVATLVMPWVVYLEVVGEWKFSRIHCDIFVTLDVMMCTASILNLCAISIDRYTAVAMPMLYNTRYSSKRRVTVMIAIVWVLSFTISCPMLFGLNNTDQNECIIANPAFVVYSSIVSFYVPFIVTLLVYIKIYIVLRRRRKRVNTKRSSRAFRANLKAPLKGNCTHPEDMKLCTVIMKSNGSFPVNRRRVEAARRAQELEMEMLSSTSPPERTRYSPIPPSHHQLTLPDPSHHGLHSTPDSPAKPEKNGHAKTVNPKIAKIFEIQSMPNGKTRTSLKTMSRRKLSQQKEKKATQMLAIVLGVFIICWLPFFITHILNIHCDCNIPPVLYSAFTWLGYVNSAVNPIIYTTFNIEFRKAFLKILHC

As for `CCC(=O)C(CC(C)N(C)C)(c1ccccc1)c1ccccc1` (stereo not given) [CAS_5967-73-7], the results for the Ki in assay [1] and in assay [2] were above 10 µM and 2.7 µM, respectively.
Consider `CC(C)NC(=O)C1C=C2c3cccc4[nH]cc(c34)CC2N(C)C1` (stereo not given) [CAS_60-79-7], for which the Ki in assay [1] was 0.061 µM.
Still for that read-out and setting: to `O=C(CCCN1CCC(O)(c2ccc(Cl)cc2)CC1)c1ccc(F)cc1` [4-[4-(4-Chloro-phenyl)-4-hydroxy-piperidin-1-yl]-1-(4-fluoro-phenyl)-butan-1-one;propionate(HCl)] belongs 0.92 µM and 1.06 µM and 1.1 µM.
On to `OC1(c2ccc(Cl)c(C(F)(F)F)c2)CCN(CCCC(c2ccc(F)cc2)c2ccc(F)cc2)CC1` [Penfluridol], for which the Ki in assay [1] stood at 1.6 µM; in assay [2], 0.0056 µM.
On the same counts, the results for `CC(C)=CCN1CC[C@@]2(C)c3cc(O)ccc3C[C@@H]1[C@@H]2C` [Talwin] are above 10 µM and 3.5 µM.
On the same counts, the results for `O=C(CCC(F)N1CCC(O)(c2cccc(C(F)(F)F)c2)CC1)c1ccccc1` (stereo not given) [CAS_749-13-3] are 0.74 µM and 0.00095 µM.
`CN(C)CCCN1c2ccccc2CCc2ccccc21`: the Ki was above 10 µM in assay [1] and 0.18 µM in assay [2].
For `OCCC1CCN(CCC=C2c3ccc(F)cc3Sc3ccc(C(F)(F)F)cc32)CC1` [CAS_60197-32-2], the results for the Ki in assay [1] and in assay [2] were 0.067 µM and 0.0009 µM, respectively.
With `CN1C2CCC1CC(OC(c1ccccc1)c1ccccc1)C2` (stereo not given), the values for the Ki in assay [1] and in assay [2] were above 10 µM and 0.23 µM, respectively.
On to `CSc1ccc2c(c1)N(CC[C@@H]1CCCCN1C)c1ccccc1S2` [10-[2-(1-Methyl-piperidin-2-yl)-ethyl]-2-methylsulfanyl-10H-phenothiazine (thioridazine)], for which the Ki in assay [1] is 1.8 µM and 1.78 µM and 1.81 µM.
As for `NC(=O)C1(N2CCCCC2)CCN(CCCC(=O)c2ccc(F)cc2)CC1` [CAS_1893-33-0], the figures for the inhibitory constant (Ki) in assay [1] and in assay [2] were 4.9 µM and 0.031 µM, respectively.
On the same counts, the results for `CSc1ccc2c(c1)C(N1CCN(C)CC1)Cc1ccccc1S2` (stereo not given) [methanesulfonic acid;1-methyl-4-(3-methylsulfanyl-5,6-dihydrobenzo[b][1]benzothiepin-5-yl)piperazine] are 0.21 µM and 0.0014 µM.
On the same counts, the results for `CN1CCN2c3ccccc3Cc3ccccc3[C@H]2C1` [MIANSERIN (+)] are 2.5 µM and 0.62 µM.
On the same counts, the results for `CNCCc1ccc(O)c(O)c1` [CAS_62-32-8] are 0.023 µM and 0.53 µM.
Turning to `OCCN1CCN(CC/C=C2/c3ccccc3Sc3ccc(Cl)cc32)CC1` [2-[4-[(3Z)-3-(2-chloro-9-thioxanthenylidene)propyl]-1-piperazinyl]ethanol;hydrochloride], the Ki was determined as 0.48 µM in assay [1] and 0.0031 µM in assay [2].
Consider `CN(C)CCCN1c2ccccc2Sc2ccccc21`, for which the Ki in assay [1] amounted to 7.1 µM; in assay [2] it was 0.072 µM.
As for `COc1ccccc1N1CCN(CCCC(=O)c2ccc(F)cc2)CC1` [Fluanisone], the figures for the Ki in assay [1] and in assay [2] were 0.8 µM and 0.0038 µM, respectively.
On the same counts, the results for `CC(C)C[C@H]1C(=O)N2CCCC2[C@]2(O)O[C@](NC(=O)[C@@H]3C=C4c5cccc6[nH]cc(c56)CC4N(C)C3)(C(C)C)C(=O)N12` (stereo partly drawn) [ALPHA-ERGOCRYPTINE] are 0.069 µM and 0.0013 µM.
Take `O=c1[nH]c2ccccc2n1C1CCN(CCCC(c2ccc(F)cc2)c2ccc(F)cc2)CC1` [1-(1-(4,4-bis(4-fluorophenyl)butyl)piperidin-4-yl)-1H-benzo[d]imidazol-2(3H)-one]: the Ki is 5.3 µM and 7.6 µM and 6.8 µM in assay [1]; 0.00081 µM and 0.0006 µM in assay [2].
For `CN1C[C@H](C(=O)N[C@]2(C)O[C@@]3(O)[C@@H]4CCCN4C(=O)[C@H](Cc4ccccc4)N3C2=O)C=C2c3cccc4[nH]cc(c34)C[C@H]21` [12'-hydroxy-2'-methyl-5'alpha-(phenylmethyl)ergotaman-3',6',18-trione], the Ki in assay [1] was 0.03 µM; in assay [2], 0.0018 µM.
On the same counts, the results for `CCN(CC)C(=O)[C@@H]1C=C2c3cccc4[nH]c(Br)c(c34)C[C@H]2N(C)C1` [LSD,2-Bromo] are 0.054 µM and 0.004 µM.
In the case of `CCc1c(C)[nH]c2c1C(=O)C(CN1CCOCC1)CC2` (stereo not given) [Moban], the Ki was above 10 µM in assay [1]; 0.068 µM and 0.065 µM and 0.085 µM and 0.09 µM in assay [2].
For `CC(C)[C@H]1C(=O)N2CCC[C@H]2[C@]2(O)O[C@](NC(=O)[C@@H]3C=C4c5cccc6[nH]cc(c56)C[C@H]4N(C)C3)(C(C)C)C(=O)N12` [ERGOCORNINE], the Ki came out at 0.036 µM in assay [1] and 0.0007 µM in assay [2].
`CC(COc1ccccc1)N(CCCl)Cc1ccccc1` (stereo not given): the Ki in assay [1] is above 10 µM; in assay [2], 0.14 µM.
Turning to `OCCN1CCN(CCC=C2c3ccccc3Sc3ccc(Cl)cc32)CC1` [NSC_12454], the Ki in assay [1] is above 10 µM; in assay [2], 0.088 µM.
In the case of `O=C(CCCN1CC=C(n2c(=O)[nH]c3ccccc32)CC1)c1ccc(F)cc1` [1-(1-(4-(4-fluorophenyl)-4-oxobutyl)-1,2,3,6-tetrahydropyridin-4-yl)-1H-benzo[d]imidazol-2(3H)-one], the figures for the Ki in assay [1] and in assay [2] were 0.88 µM and 0.001 µM, respectively.
On the same counts, the results for `O=C(CCCN1CCC(O)(c2ccc(Br)cc2)CC1)c1ccc(F)cc1` [BROMPERIDOL] are 0.6 µM and 0.0014 µM.
On to `O=C(CCCN1CCC(n2c(O)nc3ccccc32)CC1)c1ccc(F)cc1` [CAS_2062-84-2], for which the Ki in assay [1] is 4.1 µM; in assay [2], 0.00033 µM.
For the compound `CC(CN1c2ccccc2Sc2ccccc21)N(C)C` (stereo not drawn) [N,N,alpha-trimethyl-10H-phenothiazine-10-ethanamine], the Ki is above 10 µM in assay [1] and 0.24 µM in assay [2].
Regarding `NCC(O)c1ccc(O)c(O)c1` (stereo not drawn) [Noradrenaline,(+)], the Ki in assay [1] was 0.82 µM and 0.2 µM; in assay [2], > 10 µM and 5.6 µM.
Regarding `NCCc1ccc(O)c(O)c1`, in assay [1], the Ki was 0.0175 µM and 0.0168 µM and 0.0117 µM.
In the case of `NC1CCc2cc(O)c(O)cc2C1` (stereo not given), the Ki was found to be 0.011 µM in assay [1] and 0.12 µM in assay [2].
On the same counts, the results for `O=C1NCN(c2ccccc2)C12CCN(CCCC(c1ccc(F)cc1)c1ccc(F)cc1)CC2` are 1.4 µM and 0.0006 µM.
`CC(C)C[C@H]1C(=O)N2CCC[C@H]2[C@]2(O)O[C@](NC(=O)[C@@H]3C=C4c5cccc6[nH]c(Br)c(c56)C[C@H]4N(C)C3)(C(C)C)C(=O)N12` [Bromocriptine+ (GTP+)] gave a Ki in assay [2] of 0.0025 µM. That is a single-digit nanomolar value.
As to `COc1ccc2c(c1O)-c1c3c(cc4c1[C@H](C2)N(C)CC4)OCO3` [(S)-11-methoxy-7-methyl-6,7,7a,8-tetrahydro-5H-benzo[g][1,3]dioxolo[4',5':4,5]benzo[1,2,3-de]quinolin-12-ol], the figures for the Ki in assay [1] and in assay [2] were 0.8 µM and 0.93 µM, respectively.
As to `Cc1ccc(C2(O)CCN(CCCC(=O)c3ccc(F)cc3)CC2)cc1` [NSC_4249], the Ki amounted to 1.2 µM in assay [1] and 0.0019 µM in assay [2].
On the same counts, the results for `CN(C)CC/C=C1\c2ccccc2Sc2ccc(Cl)cc21` are 0.25 µM and 0.0044 µM.
On to `OCCN1CCN(CCCC2c3ccc(F)cc3Sc3ccc(C(F)(F)F)cc32)CC1` (stereo not given) [NSC_68751], for which the Ki in assay [1] was determined as 1.9 µM; in assay [2], 0.0026 µM.
`CN(C)CCCN1c2ccccc2Sc2ccc(C(F)(F)F)cc21` [TRIFLUPROMAZINE]: the results for the Ki in assay [1] and in assay [2] were 0.53 µM and 0.0021 µM, respectively.
On the same counts, the results for `CC(C)[C@@]1(NC(=O)[C@@H]2C=C3c4cccc5[nH]cc(c45)C[C@H]3N(C)C2)O[C@@]2(O)[C@@H]3CCCN3C(=O)[C@H](Cc3ccccc3)N2C1=O` [SMR000058447] are 0.052 µM and 0.0014 µM.
On the same counts, the results for `CN1CCC(=C2c3ccccc3C=Cc3ccccc32)CC1` [5-(1-methylpiperidylidene-4)-5H-dibenzo(a,d)cyclopheptene] are 1.2 µM and 0.065 µM.
On the same counts, the results for `O=C(CCCN1CCN(c2ccccn2)CC1)c1ccc(F)cc1` [1-(4-Fluoro-phenyl)-4-(4-pyridin-2-yl-piperazin-1-yl)-butan-1-one(Azaperone)] are 1.7 µM and 0.01 µM.
With `CNCC(O)c1ccc(O)c(O)c1` (stereo not given) [EPINEPHRINE], the Ki in assay [1] is 0.28 µM and 1.2 µM; in assay [2], 2.6 µM and > 10 µM.
Consider `OCCN1CCN(CCCN2c3ccccc3Sc3ccc(C(F)(F)F)cc32)CC1` [2-[4-[3-[2-(trifluoromethyl)phenothiazin-10-yl]propyl]piperazin-1-yl]ethanol;hydrochloride], for which, in assay [2], the inhibition constant (Ki) is 0.00088 µM and 0.0006 µM and 0.0003 µM and 0.0008 µM.
As to `CN1CCN(CCCN2c3ccccc3Sc3ccc(C(F)(F)F)cc32)CC1`, the Ki was determined as 0.74 µM in assay [1] and 0.0021 µM in assay [2].
On the same counts, the results for `CC[C@@H](CO)NC(=O)[C@@H]1C=C2c3cccc4c3c(cn4C)C[C@H]2N(C)C1` are 0.29 µM and 0.16 µM.
On the same counts, the results for `Cc1ccc(N(CC2=NCCN2)c2cccc(O)c2)cc1` [SMR000059054] are above 10 µM and 2 µM.
On the same counts, the results for `O=C(CCCN1CCC(O)(c2ccc(Cl)c(C(F)(F)F)c2)CC1)c1ccc(F)cc1` [CAS_10457-91-7] are 0.36 µM and 0.0005 µM.

By Ki is commonly meant a dissociation constant, usually derived from enzyme kinetics or from competition with a known ligand. Read a low Ki as tighter binding.
